In ChEMBL document CHEMBL5500358, “Identification of CH2-linked quinolone-aminopyrimidine hybrids as potent anti-MRSA agents: Low resistance potential and lack of cross-resistance with fluoroquinolone antibiotics” (Eur J Med Chem, 2024):
In brackets after ≈: the same amount, converted by molar mass. Activity calls are given as the source filed them. The calls are words filed in the database; no cut-off is given here.

How the values were obtained:
Staphylococcus aureus [1] = assay: Antibacterial activity against fluoroquinolone-sensitive methicillin resistant Staphylococcus aureus USA500 incubated for 16 to 18 hrs by absorbance based analysis; assay type: functional; settings: time 16-18 hrs
Staphylococcus aureus [2] = assay: Antibacterial activity against fluoroquinolone/methicillin resistant Staphylococcus aureus Mu50 incubated for 16 to 18 hrs by absorbance based analysis; assay type: functional; settings: time 16-18 hrs
Staphylococcus aureus [3] = assay: Antibacterial activity against fluoroquinolone-sensitive methicillin resistant Staphylococcus aureus ATCC 33591 incubated for 16 to 18 hrs by absorbance based analysis; assay type: functional; settings: time 16-18 hrs
Escherichia coli = assay: Antibacterial activity against Escherichia coli ATCC 25922 incubated for 16 to 18 hrs by absorbance based analysis; assay type: functional; settings: time 16-18 hrs
[4] = Metabolic stability in rat liver microsomes assessed as microsomal intrinsic clearance at 1 uM by LC-MS/MS analysis; assay type: ADME, Microsome; settings: read-out: CLH
[5] = Metabolic stability in rat liver microsomes assessed as drug elimination rate constant at 1 uM by LC-MS/MS analysis; assay type: ADME, Microsome
[6] = Metabolic stability in human liver microsomes assessed as compound remaining at 1 uM measured after 60 mins by LC-MS/MS analysis; assay type: ADME, Microsome; settings: read-out: Stability
[7] = Metabolic stability in rat liver microsomes assessed as compound remaining at 1 uM measured after 60 mins by LC-MS/MS analysis; assay type: ADME, Microsome; settings: read-out: Stability
[8] = Metabolic stability in human liver microsomes assessed as elimination half life at 1 uM by LC-MS/MS analysis; assay type: ADME, Microsome; settings: read-out: beta t1/2
[9] = Metabolic stability in human liver microsomes assessed as drug elimination rate constant at 1 uM by LC-MS/MS analysis; assay type: ADME, Microsome
[10] = Metabolic stability in rat liver microsomes assessed as elimination half life at 1 uM by LC-MS/MS analysis; assay type: ADME, Microsome; settings: read-out: beta t1/2
[11] = Metabolic stability in human liver microsomes assessed as microsomal intrinsic clearance at 1 uM by LC-MS/MS analysis; assay type: ADME, Microsome; settings: read-out: CLH
HEK293 = assay: Cytotoxicity against HEK293 cells assessed as reduction in cell viability at 100 uM incubated for 24 hrs by CCK-8 assay; assay type: toxicity, cell-based; settings: human, hek293, 24 h
[12] = Metabolic stability in human liver microsomes assessed as liver intrinsic clearance at 1 uM by LC-MS/MS analysis; assay type: ADME, Microsome; settings: read-out: CLH
[13] = Metabolic stability in rat liver microsomes assessed as liver intrinsic clearance at 1 uM by LC-MS/MS analysis; assay type: ADME, Microsome; settings: read-out: CLH
A549 = assay: Cytotoxicity against human A549 cells assessed as reduction in cell viability at 100 uM incubated for 24 hrs by CCK-8 assay; assay type: toxicity, cell-based; settings: a549, 24 h
Staphylococcus aureus [14] = assay: Antibacterial activity against methicillin resistant Staphylococcus aureus ATCC 33591 measured after 15 passages; assay type: functional

| Structure (SMILES) | MIC (Staphylococcus aureus [1]) | MIC (Staphylococcus aureus [2]) | MIC (Staphylococcus aureus [3]) | MIC (Escherichia coli) | other results |
| --- | --- | --- | --- | --- | --- |
| Cc1ccc(Cc2ccnc(Nc3cc4c(cc3F)c(=O)c(C(=O)O)cn4C3CC3)n2)c(C)c1 | 6.25 µg/mL (≈ 13.6 µM) | 6.25 µg/mL (≈ 13.6 µM) | 1 µg/mL (≈ 2.18 µM) | > 64 µg/mL |  |
| O=C(O)c1cn(C2CC2)c2cc(Nc3nccc(Cc4cccc(Cl)c4)n3)c(F)cc2c1=O | 6.25 µg/mL (≈ 13.4 µM) | 6.25 µg/mL (≈ 13.4 µM) | 2 µg/mL (≈ 4.3 µM) | > 64 µg/mL |  |
| N#Cc1ccccc1Cc1ccnc(Nc2cc3c(cc2F)c(=O)c(C(=O)O)cn3C2CC2)n1 |  |  | 8 µg/mL (≈ 17.6 µM) | > 64 µg/mL |  |
| Cc1ccccc1Cc1ccnc(Nc2cc3c(cc2F)c(=O)c(C(=O)O)cn3C2CC2)n1 |  |  | 2 µg/mL (≈ 4.5 µM) | > 64 µg/mL |  |
| O=C(O)c1cn(C2CC2)c2cc(Nc3nccc(Cc4ccc(F)c(F)c4)n3)c(F)cc2c1=O | 6.25 µg/mL (≈ 13.4 µM) | 6.25 µg/mL (≈ 13.4 µM) | 1 µg/mL (≈ 2.14 µM) | > 64 µg/mL |  |
| O=C(O)c1cn(C2CC2)c2cc(Nc3nccc(Cc4ccc(F)cc4F)n3)c(F)cc2c1=O | 3.12 µg/mL (≈ 6.69 µM) | 3.12 µg/mL (≈ 6.69 µM) | 1 µg/mL (≈ 2.14 µM) | > 64 µg/mL |  |
| Cc1ccc(Cc2ccnc(Nc3cc4c(cc3F)c(=O)c(C(=O)O)cn4C3CC3)n2)cc1 |  |  | 2 µg/mL (≈ 4.5 µM) | > 64 µg/mL |  |
| COc1ccccc1Cc1ccnc(Nc2cc3c(cc2F)c(=O)c(C(=O)O)cn3C2CC2)n1 |  |  | 4 µg/mL (≈ 8.69 µM) | > 64 µg/mL |  |
| C[C@H]1COc2c(N3CCN(C)CC3)c(F)cc3c(=O)c(C(=O)O)cn1c23 [LEVOFLOXACIN ANHYDROUS] | 0.2 µg/mL (≈ 0.553 µM) | 25 µg/mL (≈ 69.2 µM) |  |  |  |
| Cc1ncc2n1-c1ccc(Cl)cc1C(c1ccccc1F)=NC2 [MIDAZOLAM] |  |  |  |  | microsomal CLint at 1 µM [4]: 1350 µL/min/mg; k el at 1 µM [5]: 0.00448 s⁻¹; remaining at 1 h, 1 µM [6]: 0.691%; remaining at 1 h, 1 µM [7]: 0.48%; half-life at 1 µM [8]: 2.77 min; k el at 1 µM [9]: 0.00417 s⁻¹; half-life at 1 µM [10]: 2.58 min; microsomal CLint at 1 µM [11]: 1250 µL/min/mg |
| O=C(O)c1cn(C2CC2)c2cc(Nc3nccc(Cc4ccc(Cl)cc4)n3)ccc2c1=O | 1.56 µg/mL (≈ 3.49 µM) | 1.56 µg/mL (≈ 3.49 µM) | 0.5 µg/mL (≈ 1.12 µM) | > 64 µg/mL |  |
| O=C(O)c1cn(C2CC2)c2cc(Nc3nccc(Cc4ccccc4)n3)c(F)cc2c1=O |  |  | 4 µg/mL (≈ 9.29 µM) | > 64 µg/mL |  |
| O=C(O)c1cn(C2CC2)c2cc(Nc3nccc(Cc4ccccc4Cl)n3)c(F)cc2c1=O | 6.25 µg/mL (≈ 13.4 µM) | 6.25 µg/mL (≈ 13.4 µM) | 2 µg/mL (≈ 4.3 µM) | > 64 µg/mL |  |
| O=C(O)c1cn(C2CC2)c2cc(Nc3nccc(Cc4ccc(Cl)c(Cl)c4)n3)c(F)cc2c1=O | 6.25 µg/mL (≈ 12.5 µM) | 6.25 µg/mL (≈ 12.5 µM) | 0.5 µg/mL (≈ 1 µM) | > 64 µg/mL |  |
| O=C(O)c1cn(C2CC2)c2cc(Nc3nccc(Cc4ccc(F)c(F)c4)n3)ccc2c1=O | 0.78 µg/mL (≈ 1.74 µM) | 1.56 µg/mL (≈ 3.48 µM) | 0.5 µg/mL (≈ 1.12 µM) | > 64 µg/mL |  |
| Cc1ccc(Cc2ccnc(Nc3ccc4c(=O)c(C(=O)O)cn(C5CC5)c4c3)n2)cc1C | 0.78 µg/mL (≈ 1.77 µM) | 0.78 µg/mL (≈ 1.77 µM) | 0.5 µg/mL (≈ 1.14 µM) | > 64 µg/mL | microsomal CLint at 1 µM [4]: 23.4 µL/min/mg; k el at 1 µM [5]: 0.0002 s⁻¹; remaining at 1 h, 1 µM [6]: 41.1%; remaining at 1 h, 1 µM [7]: 49.6%; Activity (HEK293): Toxic; CLint scaled at 1 µM [12]: 26.6 mL/min/kg; half-life at 1 µM [8]: 49.4 min; CLint scaled at 1 µM [13]: 42.2 mL/min/kg; k el at 1 µM [9]: 0.000233 s⁻¹; half-life at 1 µM [10]: 59.2 min; Activity (A549): Toxic; microsomal CLint at 1 µM [11]: 28.2 µL/min/mg |
| Cc1cccc(Cc2ccnc(Nc3cc4c(cc3F)c(=O)c(C(=O)O)cn4C3CC3)n2)c1 |  |  | 4 µg/mL (≈ 9 µM) | > 64 µg/mL |  |

| Structure (SMILES) | MIC (Staphylococcus aureus [1]) | MIC (Staphylococcus aureus [2]) | MIC (Staphylococcus aureus [3]) | MIC (Escherichia coli) | other results |
| --- | --- | --- | --- | --- | --- |
| O=C(O)c1cn(C2CC2)c2cc(Nc3nccc(Cc4ccc(Cl)c(Cl)c4)n3)ccc2c1=O | 1.56 µg/mL (≈ 3.24 µM) | 1.56 µg/mL (≈ 3.24 µM) | 0.5 µg/mL (≈ 1.04 µM) | > 64 µg/mL |  |
| O=C(O)c1cn(C2CC2)c2cc(Nc3nccc(Cc4ccc(F)cc4)n3)c(F)cc2c1=O |  |  | 2 µg/mL (≈ 4.46 µM) | > 64 µg/mL |  |
| COc1cccc(Cc2ccnc(Nc3cc4c(cc3F)c(=O)c(C(=O)O)cn4C3CC3)n2)c1 |  |  | 8 µg/mL (≈ 17.4 µM) | > 64 µg/mL |  |
| O=C(O)c1cn(C2CC2)c2cc(Nc3nccc(Cc4ccccc4F)n3)c(F)cc2c1=O |  |  | 2 µg/mL (≈ 4.46 µM) | > 64 µg/mL |  |
| Cc1ccc(Cc2ccnc(Nc3ccc4c(=O)c(C(=O)O)cn(C5CC5)c4c3)n2)c(C)c1 | 1.56 µg/mL (≈ 3.54 µM) | 1.56 µg/mL (≈ 3.54 µM) | 1 µg/mL (≈ 2.27 µM) | > 64 µg/mL |  |
| O=C(O)c1cn(C2CC2)c2cc(N3CCNCC3)c(F)cc2c1=O [CIPROFLOXACIN] | 0.39 µg/mL (≈ 1.18 µM) |  | 0.25 µg/mL (≈ 0.754 µM) |  |  |
| O=C(O)c1cn(C2CC2)c2cc(Nc3nccc(Cc4ccc(Cl)cc4)n3)c(F)cc2c1=O | 1.56 µg/mL (≈ 3.36 µM) | 3.12 µg/mL (≈ 6.71 µM) | 1 µg/mL (≈ 2.15 µM) | > 64 µg/mL |  |
| COc1ccc(Cc2ccnc(Nc3cc4c(cc3F)c(=O)c(C(=O)O)cn4C3CC3)n2)cc1 |  |  | 4 µg/mL (≈ 8.69 µM) | > 64 µg/mL |  |
| O=C(O)c1cn(C2CC2)c2cc(Nc3nccc(Cc4cccc(Cl)c4)n3)ccc2c1=O | 1.56 µg/mL (≈ 3.49 µM) | 1.56 µg/mL (≈ 3.49 µM) | 0.5 µg/mL (≈ 1.12 µM) | > 64 µg/mL |  |
| CN[C@H](CC(C)C)C(=O)N[C@H]1C(=O)N[C@@H](CC(N)=O)C(=O)N[C@H]2C(=O)N[C@H]3C(=O)N[C@H](C(=O)N[C@H](C(=O)O)c4cc(O)cc(O)c4-c4cc3ccc4O)[C@H](O)c3ccc(c(Cl)c3)Oc3cc2cc(c3O[C@@H]2O[C@H](CO)[C@@H](O)[C@H](O)[C@H]2O[C@H]2C[C@](C)(N)[C@H](O)[C@H](C)O2)Oc2ccc(cc2Cl)[C@H]1O [VANCOMYCIN] | 0.78 µg/mL (≈ 0.538 µM) | 3.12 µg/mL (≈ 2.15 µM) |  | > 64 µg/mL | Activity (Staphylococcus aureus [14]): inactive |
| O=C(O)c1cn(C2CC2)c2cc(Nc3nccc(Cc4cccc(F)c4)n3)c(F)cc2c1=O |  |  | 2 µg/mL (≈ 4.46 µM) | > 64 µg/mL |  |
| O=C(O)c1cn(C2CC2)c2cc(Nc3nccc(Cc4ccc(Cl)cc4Cl)n3)c(F)cc2c1=O | 3.12 µg/mL (≈ 6.25 µM) | 3.12 µg/mL (≈ 6.25 µM) | 0.5 µg/mL (≈ 1 µM) | > 64 µg/mL |  |
| Cc1ccc(Cc2ccnc(Nc3cc4c(cc3F)c(=O)c(C(=O)O)cn4C3CC3)n2)cc1C | 25 µg/mL (≈ 54.5 µM) | 25 µg/mL (≈ 54.5 µM) | 2 µg/mL (≈ 4.36 µM) | > 64 µg/mL |  |
| O=C(O)c1cn(C2CC2)c2cc(Nc3nccc(Cc4ccccc4Cl)n3)ccc2c1=O | 3.12 µg/mL (≈ 6.98 µM) | 3.12 µg/mL (≈ 6.98 µM) | 0.5 µg/mL (≈ 1.12 µM) | > 64 µg/mL |  |
| Cc1ccc(Oc2ccnc(Nc3ccc4c(=O)c(C(=O)O)cn(C5CC5)c4c3)n2)cc1C | 0.39 µg/mL (≈ 0.881 µM) | 0.39 µg/mL (≈ 0.881 µM) | 0.5 µg/mL (≈ 1.13 µM) | > 64 µg/mL | half-life at 1 µM [8]: 25.9 min; half-life at 1 µM [10]: 8.7 min |
| O=C(O)c1cn(C2CC2)c2cc(Nc3nccc(Cc4ccc(Cl)cc4Cl)n3)ccc2c1=O | 0.39 µg/mL (≈ 0.81 µM) | 0.78 µg/mL (≈ 1.62 µM) | 0.25 µg/mL (≈ 0.519 µM) | > 64 µg/mL |  |
